Consider three compounds from patent publication EP1005865A1, “A anti-allergy anti-inflammatory composition comprising nimesulide and cetirizine” (priority 1998, dated 2000).

One data set deals with chronic hives patients. Conditions: daily regimen of 10mg of cetirizine; cited from earlier work.
In data set [1] the test system is Leukotriene D4 (LTD4) induced bronchoconstrictor in guinea pigs. The data set is described as follows: Leukotriene D4-induced bronchospasm in guinea pig (insufflation pressure). The note with it: for % Insufflation pressure after LTD4 1 µg/kg LTD4: control 186.02 ± 52.58; for % Insufflation pressure after LTD4 2 µg/kg LTD4: control 246.56 ± 14.33; for decrease in % insufflation pressure, LTD4-induced bronchoconstriction: matches the 1 µg/kg LTD4 column of Table 3.

Data set [2] concerns Histamine induced bronchoconstrictor in guinea pigs. The experiment in a line: Histamine-induced bronchospasm in anaesthetised, ventilated guinea pig (insufflation pressure). The note with it: for Histamine Challenge (% Insufflation pressure) 5 µg/kg: histamine 5 µg/kg iv, control 187.42 ± 22.49; for Histamine Challenge (% Insufflation pressure) 10 µg/kg: histamine 10 µg/kg iv, control 239.07 ± 43.64.

The next data set concerns PDE IV. The note with it: PDE IV inhibitor in vitro, reported; cited from earlier work.
Data set [3] relates to Antigen (egg albumin) induced bronchoconstrictor in guinea pigs. The data set is described as follows: Egg albumin (antigen)-induced bronchospasm in sensitized guinea pig (insufflation pressure).
Procedure: The animals were stabilized for 10 minutes.
Cetirizine was dissolved in deionized water. […] Histamine and d-tubocurarine chloride were dissolved in saline and Leukotriene D4 was diluted with Methanol and Ammonium Acetate buffer in a ratio of 70 : 30 at a pH of 5.4.
Guinea pigs were sensitized by injections of 100 mg of Egg albumin ip and 100 mg Egg albumin sc in saline. Guinea pigs were used after day 21st.
For data set [4] the following is noted: cited from earlier work.
Setting [5] is: Cetrizine 1.16 mg/kg p.o 2 hours before challenge, n 1.
Where [6] appears, read: Cetrizine 1.16 mg/kg p.o 2 hours before challenge.
Where [7] appears, read: Nimesulide 11.66 mg/kg p.o 2 hours before challenge.
[8] abbreviates: Nimesulide 23.32 mg/kg p.o 2 hours before challenge.

Structures can show the parent of a compound that is named as a salt.

As to `O=C(O)COCCN1CCN(C(c2ccccc2)c2ccc(Cl)cc2)CC1` (centres unmarked) [Cetrizine, Cetirizine dihydrochloride], the “chronic hives patients reporting excellent results” value in the data set on chronic hives patients was about 70%. Also, in data set [1] (setting [5]), the “% Insufflation pressure after LTD4 1 µg/kg LTD4” value turned out to be 57.14% and the “% Insufflation pressure after LTD4 2 µg/kg LTD4” value was 92.85%. Moreover, the “effect on LTD4-induced contractions” value in data set [1] (Cetirizine 1.16 mg/kg) is “significantly blocked”. The “decrease in % insufflation pressure, LTD4-induced bronchoconstriction” value in data set [1] (Cetirizine 1.16 mg/kg p.o) amounted to 42.86%. For the same compound, the “decrease in % insufflation pressure, histamine induced bronchoconstriction” value in data set [2] (Cetirizine 1.16 mg/kg p.o, matches the 5 µg/kg histamine column of Table 1) is on record as 62.71%. Moreover, in data set [2] (setting [6]), the “Histamine Challenge (% Insufflation pressure) 5 µg/kg” value amounted to 37.29 ± 6.76 % and the “Histamine Challenge (% Insufflation pressure) 10 µg/kg” value worked out at 68.35 ± 18.20 %. Moreover, the “effect on histamine induced increase in insufflation pressure” value in data set [2] (histamine 5 and 10 µg/kg, Cetirizine 1.66 mg/kg (so in the source)) was “significantly reduced”.
As to `CS(=O)(=O)Nc1ccc([N+](=O)[O-])cc1Oc1ccccc1` [Nimesulide], the IC50 in the data set on PDE IV was about 40 µM. Moreover, in data set [1] (setting [7]), the “% Insufflation pressure after LTD4 1 µg/kg LTD4” value is 192.45 ± 45.53% and the “% Insufflation pressure after LTD4 2 µg/kg LTD4” value is recorded as 197.02 ± 37.76%. For the same compound, in data set [1] (setting [8]), the “% Insufflation pressure after LTD4 1 µg/kg LTD4” value is recorded as 38.99 ± 19.79 % and the “% Insufflation pressure after LTD4 2 µg/kg LTD4” value is reported as 140.07 ± 61.15 %. Moreover, the “effect on insufflation pressure, LTD4-induced contractions” value in data set [1] (Nimesulide 11.66 mg/kg) is given as “no effect”. Also, in data set [1] (Nimesulide 23.32 mg/kg p.o), the “decrease in % insufflation pressure, LTD4-induced bronchoconstriction” value is 61.0%. Moreover, the “effect on LTD4-induced contractions” value in data set [1] (double dose Nimesulide 23.32 mg/kg) is “potent inhibitory effect”. For the same compound, the “decrease in % insufflation pressure, egg albumin induced bronchoconstriction” value in data set [3] (Nimesulide 11.66 mg/kg p.o, matches the 1 mg/kg egg albumin column of Table 2) came to 90.24%. Also, in data set [3] (egg albumin 1 mg/kg, 2 mg/kg, Nimesulide 11.66 mg/kg), the “effect on egg albumin induced insufflation pressure” value is “significantly reduced”. Further, the “% Insufflation pressure after egg albumin challange 1 mg/kg” value in data set [3] (sensitized guinea pigs, egg albumin 1 mg/kg, Nimesulide 11.66 mg/kg p.o, control 111.88 ± 10.53) turned out to be 9.76 ± 4.17 %. The “% Insufflation pressure after egg albumin challange 2 mg/kg” value in data set [3] (sensitized guinea pigs, egg albumin 2 mg/kg, Nimesulide 11.66 mg/kg p.o, control 196.90 ± 32.98) stood at 19.39 ± 4.32 %. Moreover, in data set [2] (Nimesulide single dose, S, 11.66 mg/kg and double dose, D, 23.32 mg/kg), the “effect on histamine induced increase in insufflation pressure” value was “no significant inhibitory effect”. Moreover, the “antihistaminic effect, histamine induced bronchoconstriction” value in data set [2] (Nimesulide, dose not given) was “no antihistaminic effect”. Further, in data set [2] (setting [7]), the “Histamine Challenge (% Insufflation pressure) 5 µg/kg” value stood at 171.07 ± 23.76% and the “Histamine Challenge (% Insufflation pressure) 10 µg/kg” value stood at 236.47 ± 40.40%. Also, in data set [2] (setting [8]), the “Histamine Challenge (% Insufflation pressure) 5 µg/kg” value came to 163.15 ± 43.27% and the “Histamine Challenge (% Insufflation pressure) 10 µg/kg” value is on record as 205.10 ± 31.33%.
Regarding `O=C(O)c1cc(=O)c2c(OCC(O)COc3cccc4oc(C(=O)O)cc(=O)c34)cccc2o1` [cromolyn sodium], in data set [4] (inhaled, taken 4 times daily), the half-life is 45 to 100 min. In addition, the “fraction of an oral dose absorbed” value in data set [4] (oral dose) is “about 1%”.
